Structure (SMILES)	melting point
Cc1cc2c(cc1C)C(c1ccccc1)(C(F)(F)C(F)(F)F)c1cc3c(cc1O2)Oc1cc(C)c(C)cc1C3(c1ccccc1)C(F)(F)C(F)(F)F (stereo not drawn)	228 to 233 °C
COCCNC(=O)c1cc(-c2ccccc2)c(=O)[nH]c1-c1c(Cl)cccc1C#N	252 to 255 °C
CC(C)(C)C(=O)C(=[N+]=[N-])S(=O)(=O)C1CCCCC1	80.5 to 82 °C
CCN(CC)C(=O)c1cc(-c2ccccc2)ccc1OC	85 to 87 °C
CC1(C)CN=C2N(C1)c1ccc(Br)cc1C21OCCCO1	151 to 153 °C
CC1=C(C(=O)c2ccc(C#N)cc2)C(=O)C2C=CC=CC2C1=O (stereo not drawn)	185 to 186 °C
O=C1C(c2cc3c(cc2O)OCCCO3)c2ccccc2N1C(c1ccccc1)c1ccccc1 (stereo not drawn)	193 to 195 °C
CCOC(=O)c1cn(C)c2cc(CC)ccc2c1=O	92 to 94 °C
CCOCCOc1cc(C(O)C#Cc2ccc(C(=O)O)cc2)cc2c1C(C)(C)CCC2(C)C (stereo not drawn)	158 °C
O=c1cc(O)cnn1Cc1ccccc1	48 to 55 °C
Nc1ccc(C(=O)C=Cc2ccncc2)cc1	207 °C
CCN(CC)C(=O)Oc1cc(-c2cccc(C(F)(F)F)c2)nc2ccccc12	96 °C
CCCc1nn(-c2ccc(C(F)(F)F)cn2)cc1CCC(=O)OCC	73 to 74 °C
ON=C(CCC(CN1CCN(c2ncccn2)CC1)C(=NO)c1ccccc1)c1ccccc1 (stereo not drawn)	75 to 78 °C
O=[N+]([O-])c1oc2ccccc2c1Br	130 to 132 °C
CCOc1c(C(=O)c2cccs2)cnc2c1cnn2Cc1ccco1	85 to 87 °C
BrCCCOc1ccc(OCCCBr)cc1	78 to 80 °C
CC(Oc1ccccc1Cl)c1nnc(C2C(O)NC(=O)N2C)s1 (stereo not drawn)	122 to 124 °C
O=c1c2cc(F)c(N3CCCC3)nc2n(-c2ccc(F)cc2F)c(=O)n1OCc1ccccc1	183 to 185 °C
Cn1nc(-c2cc([N+](=O)[O-])cc([N+](=O)[O-])c2)cc1O	230 to 231 °C
CCCn1nc(C(F)(F)CC)nc1Cc1ccc(-c2ccccc2-c2nnn[nH]2)nc1	142 to 144 °C
Cc1ccccc1C(=NO)C(=O)OC(C)C	77 to 78 °C
O=S(=O)(c1ccccc1)N(CCCN1CC=C(c2ccccc2)CC1)c1ccccc1	112 °C
CC(C)(N)CNC(=O)CNC(=O)c1ccccc1	80 to 84 °C
Clc1nc(-c2ccc(Br)cc2)nc(Cl)c1-c1ccccc1	133 °C
COC(=O)c1ccc(C#N)cc1Cl	90 to 92 °C

Structure (SMILES)	melting point
NC(=O)c1ccccc1OCC1CC1	102 to 105 °C
N#CCCNC(=O)c1cccc(-c2cccc3sc(Cc4ccc(F)c(F)c4)cc23)c1	123 to 124 °C
CN1C(=O)C=C(c2cccc(Cl)c2)C1=O	111 to 113 °C
Cn1cc(C2=C(c3cn(C)c4cc(C#N)ccc34)C(=O)NC2=O)c2ccc(N)cc21	255 to 260 °C
O=c1[nH]cc(Cl)cc1Br	170 to 173 °C
Cc1cc(SCc2ccc(OCc3ccc(Cl)cc3Cl)cc2)ccc1OCC(=O)O	101 to 103 °C
CC(=O)N1CCc2c(S(=O)(=O)Cl)ccc(Cl)c2C1	105 to 115 °C
Cc1[nH]c(-c2ccccc2)c(N)c1C(=O)c1ccccc1	203 to 205 °C
COc1cc(N2CCN(C)CC2)ccc1-c1nc2c(N[C@H]3[C@@H](C(N)=O)[C@@H]4C=C[C@H]3C4)c(Br)cnc2[nH]1	185 to 195 °C
CC(C)S(=O)(=O)c1ccc2c(c1)nc(CC(C)(C)C)n2CC1(O)CCOCC1	189 °C
C[C@]1(CN2CCN(c3ccc(C(=O)O)cc3)CC2)Cn2cc([N+](=O)[O-])nc2O1	248 to 252 °C
Nc1cnc(N2CCN(CCCC(=O)c3ccc(F)cc3)CC2)cc1N	166 to 169 °C
COc1c(Cl)cc(Cl)cc1-n1c(=O)[nH]c2ccccc21	202 to 203 °C
FC(F)(F)c1cc2ncccc2cc1Cl	137 to 139 °C
CN1C(=O)c2ccccc2N=C(NCCc2ccccc2)C1c1ccccc1 (stereo not drawn)	173 to 174 °C
CCc1cccc(Cn2[nH]c(N)cc2=O)c1	73 °C
O=C(CN1C(=O)C(Cl)=C(Cl)C1=O)Nc1ccc(Cl)cc1	212 to 214 °C
CC(C)n1nc(-c2c(-c3ccccc3)nn3cccc(OCCN(C)C)c23)ccc1=O	137 to 138 °C
COc1ccc(-n2cnc(-c3cccc(C(=O)O)c3)n2)cc1	230 to 232 °C
Cc1ccc2c(=O)n(S(=O)(=O)c3ccc(Cl)cc3)c(=O)[nH]c2c1C	241 to 245 °C
CSc1ncc(-c2ccccc2)c(=O)[nH]1	252 to 254 °C
CN(C1CCN(CC(C)(C)O)CC1)S(=O)(=O)c1ccc(Nc2nccc(Nc3ccc(F)cc3)n2)cc1	216 to 217 °C
CCN(CCO[N+](=O)[O-])C(=O)COC(=O)[C@@H](C)c1ccc2cc(OC)ccc2c1	60 to 61 °C
CNC(=O)[C@@H]1CSCc2c(O)cc(O)c(C)c2C(=O)OC[C@H](O)C(=O)N1	275 °C
Cc1ccc(-c2c3c(cc4ccc5c(c24)OCO5)C(=O)NC3=O)cc1	297 to 299 °C
CCN1CCN(CC)c2cc([N+](=O)[O-])ccc2C1=O	79 to 80 °C

Structure (SMILES)	melting point
CCN(CC)CCNC(=O)c1cc(Cl)c(N)cc1OCCCCSC	101 to 103 °C
Cc1cc(C)cc(CCCn2c(=O)c3c(N4CCN(C)CC4)cc(Cl)cc3n(Cc3ccccc3)c2=O)c1	67 to 73 °C
Cc1cc(C)cc(S(=O)(=O)n2c(CCC(=O)O)cc3nc(C(F)(F)F)ccc32)c1	185 to 189 °C
O=C(CCCCCl)c1ccccc1	49 to 50 °C
Cc1cc(Cl)ccc1N=c1scc(-c2ccc(Cl)c(S(=O)(=O)N(C)C)c2)n1C	137 to 141 °C
COc1cc(N)c(Cl)cc1C(=O)CC(O)c1ccncc1 (stereo not drawn)	181 to 183 °C
CN1C[C@H](CN2CCN(C(c3ccccc3)c3ccccc3)CC2)C[C@@H]2c3cccc4[nH]c(Cl)c(c34)C[C@H]21	250 °C
CS(=O)(=O)c1cccc(C2=C(C3CCCC3)CCC2=NO)c1	164 to 165 °C
O=C(c1ccccc1)c1cc2c([N+](=O)[O-])c(O)c(O)cc2oc1=O	94 to 96 °C
CC(O)c1cccc(Cl)c1Cl (stereo not drawn)	53 °C
COc1ccc(-c2nn(CC(C)C)c3c(F)cccc23)c(OC)c1	92 to 93 °C
CC[C@H](C(N)=O)N1CCCC1=O	115 to 117 °C
O=C(c1ccc(O)cc1)c1ccc(OCCOCCO)cc1	126 to 127 °C
Cc1[nH]c2ccc(CCO)cc2c1C(=O)OCc1ccccc1	170 to 172 °C
COc1cc(OCc2ccccn2)ccc1/C=C/c1cc(/C=C/c2ccc3ccn(Cc4ccccc4)c3c2)n[nH]1	89 to 93 °C
COc1cc(Cl)nc(N(C=O)c2ccccc2)n1	118 to 120 °C
CN1C(=O)NC2(CCCCC2)C1=O	214 to 215 °C
O=C(O)c1ccccc1CNC1CCOC1=O (stereo not drawn)	112 to 114 °C
O=C(NCCc1ccc2c(c1)OCO2)C12CC3CC(CC(C3)C1)C2	146 to 148 °C
O=C(N[C@H]1CC[C@H](CCN2CCC(c3cccc4c3CCO4)CC2)CC1)C1(O)CC1	164 °C
O=P(c1ccccc1)(c1ccccc1)C(F)F	93 to 94 °C
CCCOc1c(OC)cc(NC(C)CCCN2C(=O)c3ccccc3C2=O)c2ncccc12 (stereo not drawn)	140 to 143 °C
COc1ccc(CNC(=O)C(Cc2ccccc2)NC(=O)Nc2n[nH]c(=S)s2)cc1OC (stereo not drawn)	207 to 210 °C
COC(=O)C1(S(=O)(=O)N2CC=C(c3ccc(Br)c(C)c3)CC2)CCOCC1	128 to 130 °C
O=C(C=Cc1ccccc1)NNC(=O)C=Cc1ccccc1	267 to 268 °C
O=C1CCC(N2C(=O)c3ccccc3C2=O)C(=O)N1CO (stereo not drawn)	165 °C

Structure (SMILES)	melting point
CN1C(=O)SC(S(=O)(=O)c2cccc3c(Br)cccc23)C1=O (stereo not drawn)	150 to 151 °C
CCCCCCCCCCCCS(=O)(=O)C(C#N)=C1C=C(N2CCCC2)CC(C)(C)C1	114 to 115 °C
CC(C)C(=O)Nc1ccc(-c2c[nH]c(=O)cn2)cc1	280 °C
CC(C)Nc1cccc(C2CN3CCSC3=N2)c1 (stereo not drawn)	47 to 51 °C
CCOC(=O)c1cnc2ccc(CC)nc2c1Cl	94 to 96 °C
CCC(CC)N1CC2=C3C(=NN(c4ccc(C(C)C)cc4Br)C(=O)N3CC2)C(C)=N1	149 to 150 °C
COc1nc(Oc2ccccc2C(=O)O)nc(N(C)C)n1	148 to 149 °C
CC12CCC(C1)C1(C)Oc3ccc(C(=O)Oc4ccc(C(=O)OCc5ccccc5)cc4)cc3C21C (stereo not drawn)	131 to 133 °C
O=S(=O)(Nc1cccc(CCOCc2nc(-c3ccc(F)cc3)sc2Br)c1)C(F)(F)F	84 to 85 °C
CCOC(=O)CCc1cc(O)nn1CC(C)C	102 to 103 °C
Cc1cccc(Nc2cc(Nc3cccc(OCC(=O)N(CCO)CCO)c3)ncn2)c1	112 to 113 °C
C=CCN1CCN(C(C#CSc2ccccc2)=Nc2ccc(OC)cc2)CC1	75 °C
Cc1c(F)c(F)cc(C(N)=O)c1F	105 to 108 °C
CC(=O)OCC12CCC(OC(C)=O)CC1CCC1C2CCC2(C)C(OC(=O)C(C)(C)C)CCC12O (stereo not drawn)	155 to 156 °C
CCOC(=O)c1cnn2c1c(N1CCOCC1)nc1ccccc12	142 to 143 °C
O=C1N(CCCC2CC2)c2ccccc2C12COc1cc3c(cc12)OCO3 (stereo not drawn)	111 to 113 °C
CN(C(=O)Cc1cccc2ccccc12)C1c2ccccc2CC1N1CCCC1 (stereo not drawn)	127 °C
N#CC1(c2cccs2)CCC(=O)CC1	118 to 119 °C
O=C(CCl)Nc1ccc2c(c1)C(=O)c1cc(NC(=O)CCl)ccc1C2=O	286 °C
Cc1ccc2nc(/C=C/c3ccccc3)n(-c3ccccn3)c2c1	164 to 165 °C
COCCOc1ccccc1OS(=O)(=O)NC(=O)Nc1nc(OC)cc(OC)n1	106 to 108 °C
O=C(c1ccccc1)N(c1ccccc1)c1ccc(OCCN2CCOCC2)cc1	81.5 to 84.5 °C
Cc1onc(NS(=O)(=O)c2cccc3ccccc23)c1Br	167 to 170 °C
CC(C)(C)OC(=O)NCCCCC/C=C/C(=O)O	76 to 78 °C
O=C1CCCN1C(=O)Oc1ccc(Br)cc1	107 to 108 °C

Reference: a melting point compilation (Tetko et al.; mined from patent text by program, amines drawn as free bases though some values may be those of a salt)
